From patent US11560400B2, “Salts of diphosphate phosphoramidate of nucleosides as anticancer compounds” (NuCana plc, priority 2017, dated 2023)
Counter-ions that a name gives are not always drawn. Like-named read-outs stand apart in the source and are kept apart here. One block for each compound: values may come before it.

Experiments:
[1] = test system: HT29; assay: CellTiterGlo cell viability assay, HT29; format: cell-based; conditions: Homo sapiens, HT29, 72 h; for EC50: read-out: Ab EC50; for inhibition at 198 µM: percentage inhibition at the highest concentration tested, read-out: Top Inhibit
Procedure, shortened: (§1)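 Compounds, serially diluted 3.16-fold in DMSO and pre-warmed in media to 37 °C, were added to cells in duplicate (final 198 μM–19.8 nM, 0.5% DMSO). Plates incubated 3 days in a CO2 incubator before CellTiterGlo readout.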

[2] = test system: HL-60; assay: CellTiterGlo cell viability assay, HL-60; format: cell-based; conditions: Homo sapiens, HL-60, 72 h; for inhibition at 198 µM: read-out: Top Inh
Procedure, shortened: as §1

[3] = test system: RL; assay: CellTiterGlo cell viability assay, RL; format: cell-based; conditions: Homo sapiens, 72 h
Procedure, shortened: as §1

[4] = test system: Mia-Pa-Ca-2; assay: CellTiterGlo cell viability assay, Mia-Pa-Ca-2; format: cell-based; conditions: Homo sapiens, MIA PaCa-2, Mia-Pa-Ca-2, 72 h; for EC50: absolute EC50, read-out: Ab EC50; for inhibition at 198 µM: percentage inhibition at the highest concentration tested, read-out: Top Inhibit
Experimental: A subset of compounds of the invention were assayed for their cytotoxic activity in an array of different solid tumours and haematological malignancies using the following assay.
In vitro viability assay were performed to assess the effects of compounds on cell viability in selected cell lines over 72 h using the CellTiterGlo (CTG, Promega-G7573) assay. The tests were performed in duplicates with treatment of compounds at 9 points, 3.16 folds titration in 96 well plates over ˜72 h. The compound starting concentrations were 198 μM. Cell viability assay using CellTiterGlo in 96-well plate were performed. Compound treatment 72 h, standard growth conditions, duplicates. Compounds were dissolved to 40 mM with thawed […]. Compounds were serially diluted at 3.16 fold in thawed DMSO, and warmed to 37° C. before being dissolved in media (2 μL+200 μL). After compounds were dissolved in media, media containing compounds were warmed to 37° C. in incubator and then compounds in media were added to cell plates (50 μL+50 μL) in duplicates. The compounds' final concentrations were from 198 μM to 19.8 nM. All compound solubilities were checked and recorded again, then the plates were transferred to CO2 tissue culture incubator immediately and incubated for 3 days. DMSO final concentration is 0.5%. The parent nucleoside in each case was tested as a comparator, as was an exemplary ProTide. The drugs of the ProTide class that were tested were as follows:
The following cell lines were tested and are referred to in the Table 1 below:
In Tables 2, 3 and 4, ‘Ab EC50’ refers to the absolute EC50 and ‘Top inhibit’ refers to the percentage inhibition achieved at the highest concentration tested.

[5] = in vitro; conditions: human, pH 7.3
[6] = test system: MOLT-4; assay: CellTiterGlo cell viability assay, MOLT-4; format: cell-based
Procedure, shortened: as §1

[7] = test system: K562; assay: CellTiterGlo cell viability assay, K562; format: cell-based
Procedure, shortened: as §1

[8] = test system: RPMI-8226; assay: CellTiterGlo cell viability assay, RPMI-8226; format: cell-based, Human
Procedure, shortened: as §1

[9] = test system: MCF-7; assay: CellTiterGlo cell viability assay, MCF-7; format: cell-based; conditions: MCF-7, 72 h; for EC50: read-out: Ab EC50; for inhibition at 198 µM: percentage inhibition at the highest concentration tested, read-out: Top Inhibit
Procedure, shortened: as §1

[10] = test system: CCRF-CEM; assay: CellTiterGlo cell viability assay, CCRF-CEM; format: cell-based; conditions: 72 h; for EC50: read-out: Ab EC50; for inhibition at 198 µM: percentage inhibition at the highest concentration tested, read-out: Top Inh
Procedure, shortened: as §1

[11] = test system: HepG2; assay: CellTiterGlo cell viability assay, HepG2; format: cell-based
Procedure, shortened: as §1

[12] = test system: OVCAR 3; assay: CellTiterGlo cell viability assay, OVCAR 3; format: cell-based; conditions: Homo sapiens; for inhibition at 198 µM: percentage inhibition at the highest concentration tested, read-out: Top Inhibit; for EC50: read-out: Ab EC50
Procedure, shortened: as §1

[13] = test system: KG-1; assay: CellTiterGlo cell viability assay, KG-1; format: cell-based; conditions: Homo sapiens, KG-1, 72 h
Procedure, shortened: as §1

[14] = HT-29, 72 h, absolute EC50, numeric values
[15] = absolute EC50, numeric values, read-out: Ab EC50
[16] = percentage inhibition at the highest concentration tested
[17] = percentage inhibition at the highest concentration tested, read-out: Top Inh
[18] = Homo sapiens, MOLT-4, 72 h, percentage inhibition at the highest concentration tested, read-out: Top Inh
[19] = Homo sapiens; MOLT-4, 72 h, absolute EC50, numeric values; read-out: Ab EC50
[20] = Homo sapiens; K562, 72 h, absolute EC50, numeric values; read-out: Ab EC50
[21] = Homo sapiens, RPMI-8226, 72 h, absolute EC50, numeric values, read-out: Ab EC50
[22] = Homo sapiens, RPMI-8226, 72 h, percentage inhibition at the highest concentration tested, read-out: Top Inh
[23] = Homo sapiens, MCF7, 72 h, absolute EC50, numeric values
[24] = Homo sapiens, absolute EC50, numeric values
[25] = OVCAR 3, 72 h, absolute EC50, numeric values
[26] = Homo sapiens; HepG2, 72 h, percentage inhibition at the highest concentration tested; read-out: Top Inhibit
[27] = HT-29, absolute EC50, numeric values
[28] = Homo sapiens; RPMI-8226, 72 h, absolute EC50, numeric values; read-out: Ab EC50
[29] = Homo sapiens; RPMI-8226, 72 h, percentage inhibition at the highest concentration tested; read-out: Top Inh

SMILES: C[C@H](NP(=O)(Oc1ccccc1)OP(=O)(O)OC[C@@H]1C[C@H](OP(=O)(O)OP(=O)(N[C@@H](C)C(=O)OCc2ccccc2)Oc2ccccc2)[C@H](n2cnc3c(N)ncnc32)O1)C(=O)OCc1ccccc1 (stereo partly drawn) [Example 7, 3′-Deoxyadenosine-5′,2′-Bis-O-[phenyl(benzoxy-L-alaninyl)]-diphosphate Triethylammonium Salt]
EC50 [1, 14]: 7790 nM
inhibition at 198 µM ([1]; HT-29, 72 h): 79%
EC50 [2, 15]: 6.97 µM
inhibition at 198 µM [2, 16]: 100%
EC50 [3, 15]: 11.1 µM
inhibition at 198 µM [3, 17]: 93%
EC50 [4]: 3320 nM
inhibition at 198 µM [4]: 98.9%
half-life ([5]; hepatocytes): 27 min
inhibition at 198 µM [6, 18]: 90%
EC50 [6, 19]: 25.3 µM
inhibition at 198 µM ([7]; Homo sapiens, K562, 72 h, percentage inhibition at the highest concentration tested; read-out: Top Inh): 94%
EC50 [7, 20]: 9.16 µM
EC50 [8, 21]: 1600 nM
inhibition at 198 µM [8, 22]: 98%

SMILES: C[C@H](NP(=O)(Oc1cccc2ccccc12)OP(=O)(O)OC[C@H]1O[C@@H](n2cc(F)c(=O)[nH]c2=O)CC1O)C(=O)OCc1ccccc1 (stereo partly drawn) [Example 4, 5-Fluoro-2′-deoxyuridine-5′-O-[1-naphthyl-(benzoxy-L-alaninyl)] Diphosphate Triethylammonium Salt]
EC50 [1, 14]: 250 nM
inhibition at 198 µM ([1]; HT-29, 72 h): 77%
EC50 [9, 23]: 15.8 µM
inhibition at 198 µM ([9]; Homo sapiens, MCF7, 72 h): 66%
EC50 [10, 24]: 30 nM
inhibition at 198 µM ([10]; Homo sapiens): 97.1%
EC50 [4]: 110 nM
inhibition at 198 µM [4]: 67%
EC50 ([11]; Homo sapiens, HepG2, 72 h, absolute EC50, numeric values, read-out: Ab EC50): > 198 µM
inhibition at 198 µM ([11]; Homo sapiens, HepG2, 72 h, percentage inhibition at the highest concentration tested, read-out: Top Inhibit): 48%
inhibition at 198 µM ([12]; OVCAR-3, 72 h): 67.5%
EC50 [12, 25]: 2810 nM
half-life ([5]; hepatocytes): 15 min
EC50 [8, 21]: 50 nM
inhibition at 198 µM [8, 22]: 95%

SMILES: C[C@H](NP(=O)(Oc1cccc2ccccc12)OP(=O)(O)OC[C@H]1O[C@@H](n2c(Cl)nc3c(N)ncnc32)[C@@H](O)C1O)C(=O)OCc1ccccc1 (stereo partly drawn) [Example 5, 8-Chloroadenosine-5′-O-[1-naphthyl-(benzoxy-L-alaninyl)]diphosphate Triethylammonium Salt]
EC50 [1, 14]: 1410 nM
inhibition at 198 µM ([1]; HT-29, 72 h): 76.5%
EC50 [9, 23]: 1.69 µM
inhibition at 198 µM ([9]; Homo sapiens, MCF7, 72 h): 88%
EC50 [4]: 430 nM
inhibition at 198 µM [4]: 87.6%
half-life ([5]; hepatocytes): 18 min

SMILES: C[C@H](NP(=O)(OC[C@H]1O[C@@H](n2cnc3c(N)nc(Cl)nc32)[C@H](F)C1O)Oc1ccccc1)C(=O)OCc1ccccc1 (stereo partly shown) [A, reference compound]
EC50 ([1]; HT-29, 72 h, Table 3 classes): 2000 to 5000 nM
EC50 ([1]; HT-29, 72 h, Table 4 classes): 1000 to 5000 nM
inhibition at 198 µM ([1]; HT-29, 72 h): 94%
EC50 ([2]; read-out: Ab EC50, HL-60, 72 h, Table 3 classes): 0.2 to 2 µM
EC50 ([2]; read-out: Ab EC50, HL-60, 72 h, Table 4 classes): 0.2 to 1 µM
inhibition at 198 µM [2]: 97%
inhibition at 198 µM ([9]; Homo sapiens, MCF7, 72 h): 99.6%
EC50 ([9]; Homo sapiens, MCF7, Table 3 classes): 5 to 10 µM
EC50 ([9]; Table 4 classes): 5 to 10 µM
EC50 ([3]; read-out: Ab EC50, RL, 72 h, Table 3 classes): 2 to 5 µM
EC50 ([3]; read-out: Ab EC50, RL, 72 h, Table 4 classes): 1 to 5 µM
inhibition at 198 µM ([3]; read-out: Top Inh, RL, 72 h, percentage inhibition at the highest concentration tested): 99.8%
EC50 ([10]; Table 4 classes): < 200 nM
EC50 ([10]; Homo sapiens, Table 3 classes): < 200 nM
inhibition at 198 µM ([10]; Homo sapiens): 99.4%
EC50 ([11]; Homo sapiens; HepG2, 72 h, Table 4 classes; read-out: Ab EC50): 5 to 10 µM
inhibition at 198 µM [11, 26]: 99%
EC50 ([12]; OVCAR 3, 72 h, Table 4 classes): > 10000 nM
inhibition at 198 µM ([12]; OVCAR 3, 72 h): 94%
half-life at 1 μM ([5]; hepatocytes): 24 min
EC50 ([6]; Homo sapiens, MOLT-4, 72 h, Table 3 classes, read-out: Ab EC50): 0.2 to 2 µM
EC50 ([6]; Homo sapiens, MOLT-4, 72 h, Table 4 classes, read-out: Ab EC50): 0.2 to 1 µM
inhibition at 198 µM [6, 18]: 93%
EC50 ([7]; Homo sapiens, K562, 72 h, read-out: Ab EC50): > 10 µM
EC50 ([7]; read-out: Ab EC50; K 562, 72 h, Table 4 classes): > 10 µM
EC50 ([13]; read-out: Ab EC50): 200 to 1000 nM
inhibition at 198 µM ([13]; read-out: Top Inhibit): 93%
EC50 ([8]; Homo sapiens, RPMI-8226, 72 h, read-out: Ab EC50, RPMI-8226, 72 h, Table 3 classes): 2000 to 5000 nM
EC50 ([8]; Homo sapiens, RPMI-8226, 72 h, read-out: Ab EC50, RPMI-8226, 72 h, Table 4 classes): 1000 to 5000 nM
inhibition at 198 µM ([8]; Homo sapiens, RPMI-8226, 72 h, read-out: Top Inh, RPMI-8226, 72 h, percentage inhibition at the highest concentration tested): 97%

SMILES: Nc1ncnc2c1ncn2[C@@H]1O[C@H](CO)C[C@H]1O [Cordycepin, reference compound]
EC50 [1, 27]: 32700 nM
inhibition at 198 µM ([1]; HT-29): 87%
EC50 [2, 15]: 118 µM
inhibition at 198 µM [2, 16]: 56%
EC50 [3, 15]: > 198 µM
inhibition at 198 µM [3, 17]: 16.6%
EC50 [4]: 84700 nM
inhibition at 198 µM [4]: 88%
half-life ([5]; hepatocytes): 48 min
EC50 [6, 19]: 101 µM
inhibition at 198 µM ([6]; Homo sapiens; MOLT-4, 72 h, percentage inhibition at the highest concentration tested; read-out: Top Inh): 76.5%
EC50 [7, 20]: 118 µM
inhibition at 198 µM ([7]; Homo sapiens; K562, 72 h, percentage inhibition at the highest concentration tested; read-out: Top Inh): 94%
EC50 [8, 28]: > 198000 nM
inhibition at 198 µM [8, 29]: 17%

EC50 [1, 27]: 220 nM
EC50 ([9]; Homo sapiens, MCF7, absolute EC50, numeric values): 7.23 µM
EC50 [10, 24]: 40 nM
EC50 [4]: 350 nM
EC50 ([11]; Homo sapiens; HepG2, 72 h, absolute EC50, numeric values; read-out: Ab EC50): 84 µM
EC50 [12, 25]: 2320 nM
half-life at 1 μM ([5]; pooled cryopreserved hepatocytes): 69 min
EC50 [8, 28]: 110 nM
SMILES: O=c1[nH]c(=O)n([C@H]2C[C@H](O)[C@@H](CO)O2)cc1F [FUDR, 5-fluoro-2′-deoxyuridine, reference compound]
inhibition at 198 µM ([1]; HT-29): 82%
inhibition at 198 µM ([9]; Homo sapiens, MCF7): 73%
inhibition at 198 µM ([10]; Homo sapiens): 91.9%
inhibition at 198 µM [4]: 90%
inhibition at 198 µM [11, 26]: 61%
inhibition at 198 µM ([12]; OVCAR 3, 72 h): 66%
inhibition at 198 µM [8, 29]: 99%
